Measurements from patent US20070010541A1, “Methods for treating vascular diseases” (The General Hospital Corporation, priority 2003, published 2007).

Experiments:
grl−/− embryos = assay: Whole-organism chemical suppressor screen: suppression of the gridlock phenotype, circulation to the tail; type: in vivo, zebrafish; settings: for suppression of the gridlock phenotype (restoring circulation to the tail): grl−/− embryos in 96-well plates, circulation examined after 48 hours of development
Method: We arrayed grl−/− embryos in 96-well plates, exposed them to small molecules from a structurally-diverse chemical library, and examined their circulation after 48 hours of development. The compounds were purchased as 5 mg/mL stock solutions in DMSO from Cambridge Chemical.
Two of 5,000 small molecules examined suppress the gridlock phenotype in grl−/− embryos, restoring circulation to the tail (FIG. 1B). We confirmed the functional restoration of the aorta by microangiography (FIGS. 1A-B) and histology (FIGS. 1E-F).
Angioblasts in zebrafish are first evident around 14 hours postfertilization (hpf) and begin to aggregate at the midline by 16 hpf (Eriksson et al., J. Morphol. 244(3):167-176, 2000; Fouquet et al., Dev. Biol. 183(1):37-48, 1997). The lumen of the aorta begins to form in the posterior trunk at 17.5 hpf, but is not complete until just prior to the initiation of circulation 24 hpf. The critical period for gs4012 suppression is between 12 and 24 hpf (FIG. 2A).
Similarly, when gs4012 is added during gastrulation and washed away at later and later timepoints, the effectiveness of suppression is increased, reaching maximal suppression by […].

VEGF = assay: Real-time PCR quantitation of gene expression after gs4012 exposure; type: in vivo, zebrafish; settings: 24 hpf
Method: In the case of real-time PCR, groups of 20 grl−/− embryos are left untreated or treated with a gridlock suppressor. At 24 hours post fertilization, total RNA can be extracted using the Trizol method. Equivalent amounts of total RNA from each sample can be reverse transcribed into cDNA. This cDNA can serve as template for real-time PCR to determine the relative expression quantities for the genes listed above. RT-PCR can be performed with an Applied Biosystems Sequence Detection System 7000. Taqman probes and primers can be designed using zebrafish genomic sequences made publicly available by the Wellcome Trust Sanger Institute.
We used real-time PCR to quantitate the expression of several genes believed to play roles in angioblast cell fate determination or migration. […] VEGF plays an important role in formation of the aorta. VEGF122 expression in the Xenopus hypochord acts as a chemoattractant, stimulating angioblast migration to the midline prior to aorta formation (Cleaver et al., Development 125(19):3905-3914, 1998). […]

SMILES	time at which maximal suppression is reached (grl−/− embryos; added during gastrulation and washed away at later timepoints)	reversibility of suppression after removal of the suppressor (grl−/− embryos; after removal of suppressor)	viability of rescued mutants (grl−/− embryos; after removal of suppressor)	suppression of the gridlock phenotype (restoring circulation to the tail) (grl−/− embryos)	relative potency as gridlock suppressor (grl−/− embryos; grl−/− embryos, dose response)	suppression when treatment begins after 24 hpf (grl−/− embryos; treatment begins after 24 hpf)	VEGF expression (VEGF)
COc1ccc(SCCc2ccncc2)cc1 [gs4012]	≤ 30 hpf	suppression is irreversible	remain viable to adulthood	identified as gridlock suppressors	more potent suppressor than gs3999	Little or no suppression	upregulated
O=[N+]([O-])c1ccc(SCCc2ccncc2)cc1 [gs3999]				identified as gridlock suppressors			
